Assay results taken from US12565475B2, “Small molecule compound inhibiting signal transmission path of TLR7 and TLR9 and use thereof” (AJOU UNIVERSITY INDUSTRY-ACADEMIC COOPERATION FOUNDATION, priority 2019, dated 2026).

Columns and labels:
TLR9 [1] = target: T1, TLR9 (Homo sapiens, UniProt Q9NR96); settings: Target TLR9; values from cited literature/patent; cited from earlier work
T1 sequence (Q9NR96 26-1032): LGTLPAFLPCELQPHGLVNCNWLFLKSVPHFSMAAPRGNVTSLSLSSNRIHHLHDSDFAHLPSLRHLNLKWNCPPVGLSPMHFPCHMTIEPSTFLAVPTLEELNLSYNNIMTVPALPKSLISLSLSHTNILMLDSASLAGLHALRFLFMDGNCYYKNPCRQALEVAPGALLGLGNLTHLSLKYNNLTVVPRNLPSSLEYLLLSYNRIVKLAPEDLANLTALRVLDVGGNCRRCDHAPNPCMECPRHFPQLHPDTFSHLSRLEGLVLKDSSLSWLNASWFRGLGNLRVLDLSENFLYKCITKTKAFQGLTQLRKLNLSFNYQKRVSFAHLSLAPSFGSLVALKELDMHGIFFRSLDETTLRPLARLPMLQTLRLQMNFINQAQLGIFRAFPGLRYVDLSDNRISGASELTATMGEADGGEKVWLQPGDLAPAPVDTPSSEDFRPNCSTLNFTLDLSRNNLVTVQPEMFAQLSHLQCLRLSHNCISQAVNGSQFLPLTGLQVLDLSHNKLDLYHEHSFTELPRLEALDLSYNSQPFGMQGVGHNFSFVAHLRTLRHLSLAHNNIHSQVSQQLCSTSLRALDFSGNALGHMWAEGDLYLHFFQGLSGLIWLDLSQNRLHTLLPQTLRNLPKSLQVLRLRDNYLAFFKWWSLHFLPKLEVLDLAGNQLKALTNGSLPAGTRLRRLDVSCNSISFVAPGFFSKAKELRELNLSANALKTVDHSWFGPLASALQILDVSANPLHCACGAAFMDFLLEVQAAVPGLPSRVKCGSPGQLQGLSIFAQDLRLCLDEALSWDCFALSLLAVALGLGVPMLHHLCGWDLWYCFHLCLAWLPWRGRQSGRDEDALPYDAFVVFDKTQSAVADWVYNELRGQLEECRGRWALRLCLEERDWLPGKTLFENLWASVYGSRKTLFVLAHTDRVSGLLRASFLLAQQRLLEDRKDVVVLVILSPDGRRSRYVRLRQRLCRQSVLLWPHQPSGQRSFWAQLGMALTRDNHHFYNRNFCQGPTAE

TLR7 = target: T2, TLR7 (Mus musculus, UniProt P58681); experiment: TLR7-mediated TNF-α secretion (imiquimod stimulation), ELISA; type: cell-based, murine; settings: for inhibitory efficacy on TLR7-mediated TNF-α secretion: RAW 264.7, 10 or 50 μM, imiquimod (FIG. 4B)
T2 construct: endogenous in cells; host or cells: RAW 264.7
T2 sequence (P58681 27-1050): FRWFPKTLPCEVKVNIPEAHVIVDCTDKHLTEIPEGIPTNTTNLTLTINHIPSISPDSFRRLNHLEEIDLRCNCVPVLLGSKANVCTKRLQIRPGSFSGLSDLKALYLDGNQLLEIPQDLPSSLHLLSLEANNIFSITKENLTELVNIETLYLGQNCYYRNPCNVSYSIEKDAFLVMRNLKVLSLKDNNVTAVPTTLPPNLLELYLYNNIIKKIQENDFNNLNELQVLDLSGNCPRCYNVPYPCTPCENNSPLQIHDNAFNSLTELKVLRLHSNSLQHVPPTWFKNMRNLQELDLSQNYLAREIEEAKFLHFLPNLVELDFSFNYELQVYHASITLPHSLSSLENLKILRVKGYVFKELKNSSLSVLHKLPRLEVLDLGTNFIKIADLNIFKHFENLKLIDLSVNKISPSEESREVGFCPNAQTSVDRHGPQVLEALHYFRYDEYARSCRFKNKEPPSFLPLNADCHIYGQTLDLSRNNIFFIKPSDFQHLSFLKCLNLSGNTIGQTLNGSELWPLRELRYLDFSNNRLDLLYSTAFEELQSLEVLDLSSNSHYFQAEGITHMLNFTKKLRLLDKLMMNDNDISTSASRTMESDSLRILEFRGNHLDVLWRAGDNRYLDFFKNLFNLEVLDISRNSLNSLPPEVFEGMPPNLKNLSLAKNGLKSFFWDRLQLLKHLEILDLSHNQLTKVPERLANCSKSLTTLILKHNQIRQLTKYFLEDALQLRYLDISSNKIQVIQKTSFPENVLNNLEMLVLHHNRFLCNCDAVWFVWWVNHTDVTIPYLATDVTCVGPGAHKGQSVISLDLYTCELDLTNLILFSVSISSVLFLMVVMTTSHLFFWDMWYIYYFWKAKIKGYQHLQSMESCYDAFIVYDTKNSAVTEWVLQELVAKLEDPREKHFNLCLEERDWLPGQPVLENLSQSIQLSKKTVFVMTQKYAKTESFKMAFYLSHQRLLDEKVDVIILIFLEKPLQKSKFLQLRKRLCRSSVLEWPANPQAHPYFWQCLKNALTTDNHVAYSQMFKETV
Experimental: (§1) Agonists specific to TLR1/TLR2 (Pam3CSK4), TLR2/TLR6 (FSL-1), TLR3 (Poly I:C), TLR7 (imiquimod), and TLR8 (TL8-506) were purchased from InvivoGen Ltd. (Hong-Kong, China), and a TLR4-specific agonist (LPS from E. coli O111:B4) was purchased from Sigma-Aldrich, Inc. For TLR9-specific stimulation, class C CpG-ODN (ODN2395, 5′-TCGTCGTTTTCGGCGCGCGCCG-3′) having full phosphorothioate backbone modification was synthesized (Bioneer, Inc., Daejeon, Korea). All TLR agonists were dissolved in deionized water and applied to a culture media for TLR activation. The cells were treated with test compounds or a control medium for 1 hour, and then stimulated with a TLR agonist for 4 hours, or 24 hours in the case of poly(I:C), and the cytokine secretion was monitored.
(§2) RAW 264.7 or differentiated THP-1 cell lines were seeded onto a 96-well culture plate at a density of 2×10^4 cells/well. The cells were treated with test compounds for 1 hour followed by the stimulation with TLR agonists for 4 hours. The supernatant was transferred to pre-coated assay plates, and the secretion levels of mouse and human TNF-α were measured by respective ELISA kits (Invitrogen, Carlsbad, CA, USA). All experiments were performed according to the manufacturer's instructions. Absorbance was measured by a microplate reader spectrophotometer (Molecular Devices, Inc., San Jose, CA, USA), and data was interpolated from a standard curve using SoftMax Pro 5.3 software (Molecular Devices, Inc.).
(§3) In order to evaluate the antagonistic effect of each compound on TLR7/TLR9 through ELISA (enzyme-linked immunosorbent assay), RAW 264.7 cells were pretreated with the eight compounds followed by the stimulation with a TLR7-specific agonist (imiquimod, 3.61 μM) or with a TLR9-specific agonist (ODN2395, 0.5 μM). […] Since the two ligands had no agonistic effect per se (FIG. 3B), the increased cytokine production may be due to cell activation (or non-specific cellular stress) by co-treatment. Consequently, TIC10 was selected as the most suitable lead for further optimization to improve the inhibitory potency against both TLR7 and TLR9.

TLR9 [2] = target: T3, TLR9 (Mus musculus, UniProt Q9EQU3); experiment: TLR9-mediated TNF-α secretion (ODN2395 stimulation), ELISA; type: cell-based, murine; settings: for inhibitory efficacy on TLR9-mediated TNF-α secretion: RAW 264.7, 10 or 50 μM, ODN2395 (FIG. 4A)
T3 construct: endogenous in cells; host or cells: RAW 264.7
T3 sequence (Q9EQU3 26-1032): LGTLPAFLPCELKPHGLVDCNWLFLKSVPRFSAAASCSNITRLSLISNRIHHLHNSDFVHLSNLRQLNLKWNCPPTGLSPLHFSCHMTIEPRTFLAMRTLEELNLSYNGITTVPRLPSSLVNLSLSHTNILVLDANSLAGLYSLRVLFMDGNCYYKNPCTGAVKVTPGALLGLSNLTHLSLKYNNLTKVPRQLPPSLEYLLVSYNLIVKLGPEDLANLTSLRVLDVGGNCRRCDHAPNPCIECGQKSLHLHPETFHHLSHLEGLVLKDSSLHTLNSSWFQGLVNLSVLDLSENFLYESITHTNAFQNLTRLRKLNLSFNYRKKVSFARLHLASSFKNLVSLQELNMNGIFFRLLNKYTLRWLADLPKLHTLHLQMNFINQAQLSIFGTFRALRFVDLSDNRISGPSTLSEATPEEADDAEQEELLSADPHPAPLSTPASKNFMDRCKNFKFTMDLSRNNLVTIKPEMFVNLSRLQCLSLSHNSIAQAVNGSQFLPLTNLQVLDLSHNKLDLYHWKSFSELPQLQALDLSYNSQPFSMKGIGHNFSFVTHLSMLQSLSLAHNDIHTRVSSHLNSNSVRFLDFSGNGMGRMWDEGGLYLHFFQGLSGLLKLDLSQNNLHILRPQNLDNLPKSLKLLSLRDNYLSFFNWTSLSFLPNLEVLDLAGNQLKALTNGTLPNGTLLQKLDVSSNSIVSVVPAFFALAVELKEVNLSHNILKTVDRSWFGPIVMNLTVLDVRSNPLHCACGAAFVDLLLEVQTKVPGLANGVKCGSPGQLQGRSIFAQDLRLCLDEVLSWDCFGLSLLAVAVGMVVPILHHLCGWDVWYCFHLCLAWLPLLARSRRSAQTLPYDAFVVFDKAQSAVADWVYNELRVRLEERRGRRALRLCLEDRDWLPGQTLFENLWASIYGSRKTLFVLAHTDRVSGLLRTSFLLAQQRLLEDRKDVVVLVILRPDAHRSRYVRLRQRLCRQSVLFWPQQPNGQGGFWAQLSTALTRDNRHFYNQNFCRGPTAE
Experimental: as §1, §2, §3

RAW 264.7 cells [3] = experiment: Agonistic activity: TNF-α secretion after stimulation with compound alone (ELISA); type: cell-based, murine; settings: compound alone 24 hours
RAW 264.7 cells [4] = experiment: MTT cell viability / cytotoxicity assay; type: cell-based, murine; settings: 50 μM, 24 hours
Experimental: RAW 264.7 cells were seeded onto 96-well cell culture plate at a density of 2×10^4 cells/well and allowed to stabilize overnight. The cells were treated with test compounds or a negative control (DMSO; dimethyl sulfoxide) for 24 hours, where the final DMSO concentration of the treated well was 0.25%. Then, the medium was removed, and 500 μg/ml of an MTT (3-(4,5-dimethylthiazol-2-yl)-2,5-diphenyltetrazolium bromide, InvivoGen Ltd.) solution was added to each well. After 3 hours, the solution was replaced with DMSO (Biosesang Co. Ltd., Korea), and incubated for an additional 30 minutes to complete formazan dissolution. Absorbance was measured by a microplate colorimetric reader at a wavelength of 595 nm and normalized to the control for the determination of the cell viability. All incubations were performed under the same conditions as described above.
Before testing the antagonistic properties of the selected compounds, an MTT (3-(4,5-dimethylthiazol-2-yl)-2,5-diphenyltetrazolium bromide) assay was performed, whereby the cytotoxicity of the compounds in a murine macrophage cell line (RAW 264.7) was monitored. […] The other ligands were excluded as test subjects due to the high cytotoxicity thereof.

Structure (SMILES)	IC50 (TLR9 [1]) [µM]	inhibitory efficacy on TLR7-mediated TNF-α secretion (TLR7)	inhibitory efficacy on TLR9-mediated TNF-α secretion (TLR9 [2])	further results
CN1CCN(c2ccc(-c3nc(NCCN4CCOCC4)c4ccccc4n3)cc2)CC1 [CHEMBL457704]	0.02	–	–	–
CCOc1ccc(-c2cnc(NCc3ccc(OC)c(OC)c3OC)n2C)cc1 [TIC10-3]	–	improved inhibitory efficacy compared to TIC10	improved inhibitory efficacy compared to TIC10	–
COc1cc2nc(-c3ccc(N4CCN(C)CC4)cc3)nc(NCCN3CCOCC3)c2cc1OC [CPG-52364]	0.0046	–	–	–
COc1ccc(-c2cnc(NCc3cccc(OC)c3O)n2C)cc1 [TIC10, 2-methoxy-6-({[5-(4-methoxyphenyl)-1-methyl-1H-imidazol-2-yl]amino}methyl)phenol]	–	–	–	expression of proinflammatory cytokine TNF-α on stimulation with ligand alone (agonistic role) (RAW 264.7 cells [3]): did not induce the expression of proinflammatory cytokine TNF-α; inhibition of TLR7-mediated TNF-α secretion (TLR7; RAW 264.7, at 50 µM, pretreated 1 hour, imiquimod 3.61 μM 4 hours): inhibited; cytotoxicity (MTT assay) (RAW 264.7 cells [4]): non-toxic or marginally toxic; inhibition of TLR9-mediated TNF-α secretion (TLR9 [2]; RAW 264.7, 50 μM, pretreated 1 hour, ODN2395 0.5 μM 4 hours): significantly inhibit
CN(C)CCNc1nc(-c2ccc(N3CCN(C)CC3)cc2)nc2ccccc12 [CHEMBL515364]	0.03	–	–	–
CCOc1ccc(-c2cnc(NCc3cccc(OC)c3OC)n2C)cc1 [TIC10-8]	–	improved inhibitory efficacy compared to TIC10	improved inhibitory efficacy compared to TIC10	–
